One assay relates to VEGFR2. To be noted: cited from earlier work.
The target of a further assay is EGFR (Homo sapiens, UniProt P00533). To be noted: cited from earlier work.
In the next assay the test system is HDAC. The settings on record: Figure 2; cited from earlier work.
The target of assay [1] is T1, HDAC6 (Homo sapiens, UniProt Q9UBN7).
T1 construct: purchased BPS Bioscience 50006
T1 sequence (Q9UBN7 1-1215): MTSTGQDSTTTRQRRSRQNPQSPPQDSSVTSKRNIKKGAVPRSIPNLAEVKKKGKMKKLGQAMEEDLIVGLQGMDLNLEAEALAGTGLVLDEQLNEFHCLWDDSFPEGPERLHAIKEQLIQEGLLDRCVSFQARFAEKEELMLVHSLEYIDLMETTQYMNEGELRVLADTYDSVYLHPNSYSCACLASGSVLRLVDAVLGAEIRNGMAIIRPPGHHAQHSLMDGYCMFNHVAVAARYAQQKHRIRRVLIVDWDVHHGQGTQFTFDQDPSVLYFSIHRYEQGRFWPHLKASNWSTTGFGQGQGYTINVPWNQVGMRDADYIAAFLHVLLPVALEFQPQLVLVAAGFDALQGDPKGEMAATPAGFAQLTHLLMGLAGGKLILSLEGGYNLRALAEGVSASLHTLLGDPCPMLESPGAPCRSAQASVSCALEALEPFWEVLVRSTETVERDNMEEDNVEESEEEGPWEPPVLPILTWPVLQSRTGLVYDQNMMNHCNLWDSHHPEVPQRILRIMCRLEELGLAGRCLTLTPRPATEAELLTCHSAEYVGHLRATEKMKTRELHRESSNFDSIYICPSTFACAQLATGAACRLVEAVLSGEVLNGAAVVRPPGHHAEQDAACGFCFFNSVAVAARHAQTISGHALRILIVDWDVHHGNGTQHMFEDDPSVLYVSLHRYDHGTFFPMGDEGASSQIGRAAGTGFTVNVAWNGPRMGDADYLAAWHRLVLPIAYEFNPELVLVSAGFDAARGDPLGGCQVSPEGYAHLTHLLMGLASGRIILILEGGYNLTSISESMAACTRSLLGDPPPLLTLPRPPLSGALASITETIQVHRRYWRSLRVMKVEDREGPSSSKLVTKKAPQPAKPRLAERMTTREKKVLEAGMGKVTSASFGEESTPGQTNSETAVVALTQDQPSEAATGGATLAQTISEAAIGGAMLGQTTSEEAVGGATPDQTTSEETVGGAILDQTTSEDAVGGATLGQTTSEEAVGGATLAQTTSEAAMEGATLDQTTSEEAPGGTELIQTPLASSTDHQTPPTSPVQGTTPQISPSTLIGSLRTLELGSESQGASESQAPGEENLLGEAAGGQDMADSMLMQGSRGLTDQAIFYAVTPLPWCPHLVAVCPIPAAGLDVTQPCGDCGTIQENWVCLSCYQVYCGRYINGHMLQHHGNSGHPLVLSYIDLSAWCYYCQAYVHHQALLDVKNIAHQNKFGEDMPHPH
The settings on record: Figure 2; cited from earlier work.

Another assay relates to HER2. To be noted: Figure 2; cited from earlier work.
In a further assay the test system is Hela nuclear extracts. The experiment in a line: Hela nuclear extract HDAC inhibitor assay (BPS Bioscience). The format is biochemical. Here is the method:
The purpose of the study is to determine the effects of twenty compounds from Misr International University on the enzymatic activities of hela nuclear extracts using an in vitro […]
7a Solution 10mM DMSO 10 10 % DMSO in
7b Solution 10mM DMSO 10 10 % DMSO in
7d Solution 10mM DMSO 10 10 % DMSO in
2.3 Experimental Conditions
2.3.1 Enzymes and Substrates
Assay Catalog # Substrate
Hela Nuclear Exctract 50053 10 µM HDAC Substrate 3
For the hela nuclear extracts, hela cells were grown to 90 % confluency. Hela nuclear extracts were prepared from the Nuclear Extraction Kit from abcam (Catalog # ab113474). The final total protein concentration was calculated to be 2.4 µg/µl. From this, the hela nuclear extracts was diluted 20-fold in HDAC assay buffer and 5 µl of the dilution was added to a 50 µl reaction.
The compounds are dissolved in DMSO. A series of dilutions of the compounds were prepared with 10% DMSO in HDAC assay buffer and 5 µl of the dilution was added to a 50 µl reaction so that the final concentration of DMSO is 1 % in all of […]
The enzymatic reactions for the hela nuclear extract were conducted in duplicate at 37 °C for 60 minutes in a 50 µl mixture containing HDAC assay buffer, 5 µg BSA, an HDAC substrate (see 2.3.1), hela nuclear extract, and a test compound (see 2.2).
After enzymatic reactions, 50μl of 2 x HDAC Developer was added to each well for the hela nuclear extract and the plate was incubated at room temperature for an additional 15 […]
Fluorescence intensity was measured at an excitation of 360 nm and an emission of 460 nm using a Tecan Infinite M1000 microplate reader.
Hela nuclear extract activity assays were performed in duplicates at each concentration.
The fluorescent intensity data were analyzed using the computer software, Graphpad Prism. In the absence of the compound, the fluorescent intensity (Ft) in each data set was defined as 100% activity. In the absence of hela nuclear extract, the fluorescent intensity (Fb) in each data set was defined as 0% activity. The percent activity in the presence of each compound was calculated according to the following equation: %activity = (F-Fb)/(Ft-Fb), where F= the fluorescent intensity in the presence of the compound.
The values of percentage activity were plotted on a bar graph.

Assay [2] has as its target T1, HDAC6. The experiment in a line: In vitro HDAC6 inhibitory assay (BPS Bioscience, fluorogenic). In kind it is biochemical. To be noted: read-out: % Inhibition HDAC6. As for the experimental part:
(1 picture or pasted object on this page, not shown here)
HDAC activity assays were performed in duplicates at each concentration. The

Where [3] appears, read: Figure 3, read-out: VEGFR2 IC50.

Read-outs that look alike come from different tables or passages of the source.

Chain of EGFR (P00533 25-1210): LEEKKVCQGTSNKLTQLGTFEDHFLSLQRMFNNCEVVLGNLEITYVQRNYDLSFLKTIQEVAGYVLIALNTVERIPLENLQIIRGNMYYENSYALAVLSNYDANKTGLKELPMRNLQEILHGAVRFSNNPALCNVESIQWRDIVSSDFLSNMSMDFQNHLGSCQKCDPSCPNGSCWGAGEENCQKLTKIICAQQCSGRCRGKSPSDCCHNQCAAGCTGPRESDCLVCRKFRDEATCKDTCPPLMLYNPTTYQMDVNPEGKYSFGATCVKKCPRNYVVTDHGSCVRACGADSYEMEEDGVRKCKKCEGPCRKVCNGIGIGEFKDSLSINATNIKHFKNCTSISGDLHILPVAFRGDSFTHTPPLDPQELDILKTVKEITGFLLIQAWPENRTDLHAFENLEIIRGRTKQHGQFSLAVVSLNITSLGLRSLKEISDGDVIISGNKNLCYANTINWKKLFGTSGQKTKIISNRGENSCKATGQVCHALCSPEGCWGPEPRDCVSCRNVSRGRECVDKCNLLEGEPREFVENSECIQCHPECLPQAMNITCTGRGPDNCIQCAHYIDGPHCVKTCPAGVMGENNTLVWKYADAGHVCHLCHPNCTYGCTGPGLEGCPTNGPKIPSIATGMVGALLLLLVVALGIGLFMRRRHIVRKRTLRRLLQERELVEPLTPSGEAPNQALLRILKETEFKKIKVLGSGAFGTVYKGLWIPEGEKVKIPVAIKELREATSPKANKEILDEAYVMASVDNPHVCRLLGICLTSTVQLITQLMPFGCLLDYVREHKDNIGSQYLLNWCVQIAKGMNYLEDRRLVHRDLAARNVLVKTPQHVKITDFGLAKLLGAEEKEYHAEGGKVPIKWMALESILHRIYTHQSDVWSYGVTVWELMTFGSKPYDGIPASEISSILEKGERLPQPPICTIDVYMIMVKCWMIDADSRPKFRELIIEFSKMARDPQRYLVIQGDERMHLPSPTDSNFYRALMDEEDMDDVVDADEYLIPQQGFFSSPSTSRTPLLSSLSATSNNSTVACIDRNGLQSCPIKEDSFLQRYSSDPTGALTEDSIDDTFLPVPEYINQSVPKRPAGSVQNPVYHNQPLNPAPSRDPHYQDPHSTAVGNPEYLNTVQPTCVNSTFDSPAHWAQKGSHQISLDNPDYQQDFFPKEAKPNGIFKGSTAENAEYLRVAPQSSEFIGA

Broadly, the IC50 is the concentration that gives 50% inhibition. In the case of `O=C(Nc1cccc(Br)c1)Nc1ccc(Oc2ncnc3sc4c(c23)CCCCC4)cc1Cl` [Compound E], the IC50 in the assay with VEGFR2 (setting [3]) is 15 nM; on EGFR (Figure 3), 1260 nM.

Turning to `O=C(CCCCCCn1cc(-c2ccc3ncnc(Nc4ccc(Br)cc4F)c3c2)nn1)NO` [compound C], the IC50 with HDAC is 3.2 nM; on HDAC6 [1], 6 nM; on EGFR (Figure 2), 4.4 nM.

For `COc1cc2ncnc(Nc3ccc(Br)cc3)c2cc1OCCCCCCC(=O)NO` [compound B], the IC50 in the assay on VEGFR2 (Figure 2, read-out: VEGFR2 IC50) is 74 nM; with HDAC, 2.2 nM.

For the compound Vandetanib, the IC50 with VEGFR2 (read-out: IC50 VEGFR-2) was 40 nM.

For `C#Cc1cccc(Nc2ncnc3cc(OC)c(OCCCCCCC(=O)NO)cc23)c1` [CUDC-101, 7-(4-(3-ethynylphenylamino)-7-methoxyquinazolin-6-yloxy)-N-hydroxyheptanamide], the IC50 with HER2 is 15 nM.

Broadly, the inhibition is the share of the control response that was lost under treatment. Turning to `CC(C=CC(=O)NO)=CC(C)C(=O)c1ccc(N(C)C)cc1` (stereo not shown) [TSA, reference compound], in the assay on Hela nuclear extracts (0.0003 µM (printed 0.0003 M)), the “% Inhibition Hela Nuclear Extracts” value was 7%. For the same compound, the “% Inhibition Hela Nuclear Extracts” value in the assay on Hela nuclear extracts (0.003 µM (printed 0.003 M)) turned out to be 46%. In addition, in the assay with Hela nuclear extracts (0.03 µM (printed 0.03 M)), the “% Inhibition Hela Nuclear Extracts” value is recorded as 88%. Besides, at HDAC6 [2], the inhibition at 0.0005 µM is 23%, the inhibition at 0.005 µM is 73% and the inhibition at 0.05 µM was 95%.

Take `Clc1ccc(Oc2ncnc3sc4c(c23)CCCCC4)cc1` [Compound D]: the half-inhibitory concentration (IC50) with VEGFR2 (setting [3]) was 340 nM.

The values above are taken from paper PMC8253220, “Molecular design, synthesis and in vitro biological evaluation of thienopyrimidine–hydroxamic acids as chimeric kinase HDAC inhibitors: a challenging approach to combat cancer” (Journal of Enzyme Inhibition and Medicinal Chemistry, 2021).
